Measurements reported in patent US20210038515A1 (Azurity Pharmaceuticals, Inc., priority 2014, published 2021).

Key:
[1] = test system: Bifidobacterium adolescentis; assay: Agar dilution test, other anaerobic organisms; type: cell-based; settings: for MIC, AV (average): average of triplicate; for MIC, VAN-1: replicate 1; for MIC, VAN-2: replicate 2; for MIC, VAN-3: replicate 3
[2] = test system: Bacteroides fragilis; assay: Agar dilution test, other anaerobic organisms; type: cell-based; settings: for MIC, AV (average): average of triplicate; for MIC, VAN-1: replicate 1; for MIC, VAN-2: replicate 2; for MIC, VAN-3: replicate 3

**Q.** For CN[C@H](CC(C)C)C(=O)N[C@H]1C(=O)N[C@@H](CC(N)=O)C(=O)N[C@H]2C(=O)N[C@H]3C(=O)N[C@H](C(=O)N[C@H](C(=O)O)c4cc(O)cc(O)c4-c4cc3ccc4O)[C@H](O)c3ccc(c(Cl)c3)Oc3cc2cc(c3O[C@@H]2O[C@H](CO)[C@@H](O)[C@H](O)[C@H]2O[C@H]2C[C@](C)(N)[C@H](O)[C@H](C)O2)Oc2ccc(cc2Cl)[C@H]1O.Cl [Sigma], which “MIC, AV (average)” value ([1]; Bif. adolescentis RMA 21317) is on record?
**A.** 1 µg/mL

**Q.** And the “MIC, VAN-1” value ([1]; Bif. adolescentis RMA 21317)?
**A.** 1 µg/mL

**Q.** What about the “MIC, VAN-2” value ([1]; Bif. adolescentis RMA 21317) of the same compound?
**A.** 1 µg/mL

**Q.** What about the “MIC, VAN-3” value ([1]; Bif. adolescentis RMA 21317) of the same compound?
**A.** 1 µg/mL

**Q.** What about the “MIC, AV (average)” value ([1]; Bif. adolescentis RMA 21531) of the same compound?
**A.** 3 µg/mL

**Q.** What about the “MIC, VAN-1” value ([1]; Bif. adolescentis RMA 21531) of the same compound?
**A.** 0.5 µg/mL

**Q.** What about the “MIC, VAN-2” value ([1]; Bif. adolescentis RMA 21531) of the same compound?
**A.** 1 µg/mL

**Q.** What about the “MIC, VAN-3” value ([1]; Bif. adolescentis RMA 21531) of the same compound?
**A.** 1 µg/mL

**Q.** And the “MIC, AV (average)” value ([1]; Bif. adolescentis RMA 21551)?
**A.** 1 µg/mL

**Q.** What about the “MIC, VAN-1” value ([1]; Bif. adolescentis RMA 21551) of the same compound?
**A.** 1 µg/mL

**Q.** And the “MIC, VAN-2” value ([1]; Bif. adolescentis RMA 21551)?
**A.** 1 µg/mL

**Q.** What about the “MIC, VAN-3” value ([1]; Bif. adolescentis RMA 21551) of the same compound?
**A.** 1 µg/mL

**Q.** What about the “MIC, AV (average)” value ([1]; Bif. adolescentis RMA 21680) of the same compound?
**A.** 1 µg/mL

**Q.** What about the “MIC, VAN-1” value ([1]; Bif. adolescentis RMA 21680) of the same compound?
**A.** 1 µg/mL

**Q.** What about the “MIC, VAN-2” value ([1]; Bif. adolescentis RMA 21680) of the same compound?
**A.** 1 µg/mL

**Q.** And the “MIC, VAN-3” value ([1]; Bif. adolescentis RMA 21680)?
**A.** 1 µg/mL

**Q.** And the “MIC, AV (average)” value ([1]; Bif. adolescentis RMA 21703)?
**A.** 1 µg/mL

**Q.** What about the “MIC, VAN-1” value ([1]; Bif. adolescentis RMA 21703) of the same compound?
**A.** 1 µg/mL

**Q.** What about the “MIC, VAN-2” value ([1]; Bif. adolescentis RMA 21703) of the same compound?
**A.** 1 µg/mL

**Q.** What about the “MIC, VAN-3” value ([1]; Bif. adolescentis RMA 21703) of the same compound?
**A.** 1 µg/mL

**Q.** What about the “MIC, AV (average)” value ([2]; B. fragilis RMA 26978) of the same compound?
**A.** >16 µg/mL

**Q.** And the “MIC, VAN-1” value ([2]; B. fragilis RMA 26978)?
**A.** >16 µg/mL

**Q.** And the “MIC, VAN-2” value ([2]; B. fragilis RMA 26978)?
**A.** >16 µg/mL

**Q.** What about the “MIC, VAN-3” value ([2]; B. fragilis RMA 26978) of the same compound?
**A.** >16 µg/mL

**Q.** What about the “MIC, AV (average)” value ([2]; B. fragilis RMA 26979) of the same compound?
**A.** >16 µg/mL

**Q.** What about the “MIC, VAN-1” value ([2]; B. fragilis RMA 26979) of the same compound?
**A.** >16 µg/mL

**Q.** And the “MIC, VAN-2” value ([2]; B. fragilis RMA 26979)?
**A.** >16 µg/mL

**Q.** What about the “MIC, VAN-3” value ([2]; B. fragilis RMA 26979) of the same compound?
**A.** >16 µg/mL

**Q.** And the “MIC, AV (average)” value ([2]; B. fragilis RMA 26980)?
**A.** >16 µg/mL

**Q.** What about the “MIC, VAN-1” value ([2]; B. fragilis RMA 26980) of the same compound?
**A.** >16 µg/mL

**Q.** What about the “MIC, VAN-2” value ([2]; B. fragilis RMA 26980) of the same compound?
**A.** >16 µg/mL

**Q.** What about the “MIC, VAN-3” value ([2]; B. fragilis RMA 26980) of the same compound?
**A.** >16 µg/mL

**Q.** And the “MIC, AV (average)” value ([2]; B. fragilis RMA 26981)?
**A.** >16 µg/mL

**Q.** And the “MIC, VAN-1” value ([2]; B. fragilis RMA 26981)?
**A.** >16 µg/mL

**Q.** What about the “MIC, VAN-2” value ([2]; B. fragilis RMA 26981) of the same compound?
**A.** >16 µg/mL

**Q.** And the “MIC, VAN-3” value ([2]; B. fragilis RMA 26981)?
**A.** >16 µg/mL

**Q.** What about the “MIC, AV (average)” value ([2]; B. fragilis RMA 26982) of the same compound?
**A.** >16 µg/mL

**Q.** And the “MIC, VAN-1” value ([2]; B. fragilis RMA 26982)?
**A.** >16 µg/mL

**Q.** What about the “MIC, VAN-2” value ([2]; B. fragilis RMA 26982) of the same compound?
**A.** >16 µg/mL

**Q.** And the “MIC, VAN-3” value ([2]; B. fragilis RMA 26982)?
**A.** >16 µg/mL
